Data on 64 molecules can be found in PubChem BioAssay AID1508612.

A short description of this series: passive permeability, PAMPA, ADME assay (AID 1508612). Particulars: pH 7.4, 30.0 min, 50.0 µM. Background: In PAMPA a lipid-coated filter parts donor from acceptor wells.

For `O=C1CCCC2=C1C(c1[nH]ncc1Cl)N=C(Nc1nc3cc([S+](=O)([O-])N4CCOCC4)ccc3o1)N2` (centres undefined), the Papp (usually the rate of passage across a membrane or cell layer, normalised by area and donor concentration) was found to be 169 ×10⁻⁶ cm/s. In turn, `Cc1cc(-c2nnc3n2CCCCC3)c(C)n1-c1ccc(C(C)(C)C)cc1` yielded a Papp of more than 1000 ×10⁻⁶ cm/s. As to `COc1cccc(C(=O)Nc2nc(-c3nnn(-c4cccc(Cl)c4C)c3C)ns2)c1`, the Papp was found to be 321 ×10⁻⁶ cm/s. `Oc1ccc(-c2nc(C3CC3)nc3c2CCN(CC2CCCCC2)CC3)cc1`: the Papp was more than 1000 ×10⁻⁶ cm/s.

In the case of `Cc1cc(C)nc(NS(=O)(=O)c2ccc(NC(=S)NC(=O)COc3ccc(Br)cc3Cl)cc2)n1`, the Papp was determined as 457 ×10⁻⁶ cm/s.

The molecule `O=C(NCCCO)c1ccc(-c2ncc3cnc(-c4cccc(F)c4)cn23)cc1` registered a Papp of 32 ×10⁻⁶ cm/s. Regarding `CN(C)c1cc(-c2nc(Nc3ccc(F)c(F)c3)c3ccccc3n2)ccn1`, the Papp is more than 1000 ×10⁻⁶ cm/s. Molecule `NC(=O)C1CCN(c2nc(-c3ccc(Oc4ccccc4)cc3)cs2)CC1` yielded a Papp of 953 ×10⁻⁶ cm/s.

`Cc1cc(-c2nnc3n2CCCCC3)c(C)n1-c1cccnc1`: the apparent permeability coefficient (Papp) is 49.2 ×10⁻⁶ cm/s. The molecule `CNC(=O)c1ccccc1Nc1nc(Nc2ccc(N3CCOCC3)cc2OC)ncc1Cl` registered a Papp of more than 1000 ×10⁻⁶ cm/s. Molecule `CC(C)c1ccccc1-c1ncc(F)c(NCc2ccc(-c3ccn[nH]3)cc2)n1` gave a Papp of more than 1000 ×10⁻⁶ cm/s. `CCOC(=O)c1ccc(NC(=O)N2Cc3[nH]cnc3C[C@H]2c2nc(C(C)C)no2)cc1`: the Papp was found to be 113 ×10⁻⁶ cm/s. Regarding `Cc1cc(-c2nnc3n2CCCCC3)c(C)n1-c1ccc(Cl)c(Cl)c1`, the Papp is more than 1000 ×10⁻⁶ cm/s. The same measure for `CN(Cc1ccccc1)C(=O)c1ccc(S(=O)(=O)Nc2ccccc2)cc1`: 288 ×10⁻⁶ cm/s; for `COc1cccc(CNc2ccc(S(=O)(=O)Nc3ccc(C)nc3)cc2)c1O`: 973 ×10⁻⁶ cm/s. The same measure for `O=C(c1nc(-c2ccc(Cl)cc2Cl)c2cnccn12)N1CCOCC1`: more than 1000 ×10⁻⁶ cm/s. `Cc1cnc(-c2ccccc2C(C)C)nc1NCc1ccc(-n2ccnn2)cc1` yielded an apparent permeability (Papp) of more than 1000 ×10⁻⁶ cm/s. Molecule `CCn1nc(C2CCN(C(=O)CCO)CC2)nc1-c1cnc(N)c(-c2nnc(C(C)(C)C)o2)n1` gave a Papp of 188 ×10⁻⁶ cm/s.

With `O=C(CCc1ccccc1)Nc1ccc(S(=O)(=O)Nc2nccs2)cc1`, the Papp is 9.34 ×10⁻⁶ cm/s.

On to `Cc1nc(Nc2n[nH]c3c2CN(C(=O)N[C@H](CN(C)C)c2ccccc2)C3(C)C)c2sccc2n1`, for which the Papp worked out at 2.31 ×10⁻⁶ cm/s. `CN[C@@H](C)C(=O)N[C@@H]1C(=O)N(Cc2c(C)ccc3ccccc23)c2ccc(C#N)cc2N(C(C)=O)[C@H]1C` displayed a Papp of 551 ×10⁻⁶ cm/s. `O=C(Nc1ccc(OC(F)(F)Cl)cc1)c1cnc(N2CC[C@@H](O)C2)c(-c2ccn[nH]2)c1` returned a Papp of 14.6 ×10⁻⁶ cm/s. Regarding `Cc1ccc(C(=O)Nc2cccc(C(F)(F)F)c2)cc1Nc1nc(-c2cccnc2)nc2c1cnn2C`, the Papp worked out at 283 ×10⁻⁶ cm/s. In the case of `CCn1nnnc1Sc1ncnc2scc(-c3ccc(C)cc3)c12`, the Papp was more than 1000 ×10⁻⁶ cm/s. Turning to `COc1ccccc1Nc1ccnc(N2CCN(C(=O)c3ccc(F)cc3)CC2)n1`, the Papp is more than 1000 ×10⁻⁶ cm/s.

In the case of `CCc1nnc(NC(=O)c2nc(S(=O)(=O)Cc3ccc(C)cc3)ncc2Cl)s1`, the apparent permeability coefficient (Papp) turned out to be 32.9 ×10⁻⁶ cm/s. In turn, `CCN1CCN(c2ccc(Nc3ccc(-c4ccc(C(N)=O)cc4)n4ncnc34)cc2)CC1` had an apparent permeability (Papp) of 747 ×10⁻⁶ cm/s. Compared with the last molecule, the Papp is about 23-fold higher. Regarding `O=C(NCCc1ccc(OCC(F)(F)F)c(OCC(F)(F)F)c1)c1cc2sccc2n1Cc1ccccc1`, the Papp amounted to 24.5 ×10⁻⁶ cm/s. On to `CC1=NN(c2ccc(C(=O)O)cc2)C(=O)/C1=C/c1ccc(-c2cc(C)c(C)cc2[N+](=O)[O-])o1`, for which the Papp was found to be 238 ×10⁻⁶ cm/s. Take `CCc1[nH]c2ccc(CNC(=O)Cc3cnc4c(C)cccn34)cc2c1C`: the Papp worked out at 405 ×10⁻⁶ cm/s. The same measure for `COCCCNC(=O)c1cc2cc(S(=O)(=O)N(C)C)ccc2n1C`: 77.2 ×10⁻⁶ cm/s; for `COc1cccc(CNc2ccc(S(=O)(=O)Nc3nc4ccccc4o3)cc2)c1O`: 106 ×10⁻⁶ cm/s; for `CNc1nc2c(s1)C(c1ccc(Cl)cc1)CC(=O)N2` (centres undefined): 308 ×10⁻⁶ cm/s. As to `COc1ccccc1-c1nnc2sc(-c3ccc(N(C)C)cc3)nn12`, the Papp is 278 ×10⁻⁶ cm/s. Consider `CCOc1ccc(CCNC(=O)c2cc3ccccc3n2Cc2ccccn2)cc1OCC`, for which the Papp is more than 1000 ×10⁻⁶ cm/s. `Fc1cc(-c2nc(Nc3ccc(F)c(F)c3)c3ccccc3n2)ccn1`: the Papp turned out to be 116 ×10⁻⁶ cm/s. Turning to `O=C(Nc1ccc(Cl)c(S(=O)(=O)N2CCOCC2)c1)c1ccccc1`, the Papp amounted to 728 ×10⁻⁶ cm/s. In the case of `Fc1cnc(-c2ccccc2C(F)F)nc1NCC1CCN(c2cnccn2)C1` (centres undefined), the apparent permeability (Papp) was more than 1000 ×10⁻⁶ cm/s. As to `Cc1ccc(C)n1-c1cccc(C(=O)O)c1`, the Papp is 34.6 ×10⁻⁶ cm/s.

In the case of `NC(=O)C1CCN(c2nc(-c3ccc4ccccc4c3)cs2)CC1`, the Papp was determined as 406 ×10⁻⁶ cm/s.

In turn, `COc1cc2nccc(Oc3ccc(NC(=O)C4(C(=O)Nc5ccc(F)cc5)CC4)cc3)c2cc1OC` had a Papp of 507 ×10⁻⁶ cm/s.

Regarding `CCOc1ccccc1CNS(=O)(=O)c1ccc(-c2cnc(C3CC3)o2)cc1`, the apparent permeability (Papp) is more than 1000 ×10⁻⁶ cm/s.

Turning to `COc1ccc(S(=O)(=O)Nc2cnccc2C(=O)Nc2nc(-c3ccccc3)cs2)cc1`, the Papp was 675 ×10⁻⁶ cm/s. With `COc1ccc2c(ccn2CCC(=O)Nc2ccc3c(c2)C(=O)N2CCC[C@H]2C(=O)N3)c1` the figure was 22.6 ×10⁻⁶ cm/s; with `Cc1cnc(-c2ccccc2C(F)F)nc1NCc1ccc(-c2cccnc2)cc1`, more than 1000 ×10⁻⁶ cm/s. With `Cc1ccc(S(=O)(=O)Nc2cnccc2C(=O)Nc2ccc(-n3cncn3)cc2)cc1` the figure was 8.29 ×10⁻⁶ cm/s; with `Cc1ccc(S(=O)(=O)Nc2cnccc2C(=O)Nc2nc(-c3ccc4c(c3)CCCC4)cs2)cc1`, 45.2 ×10⁻⁶ cm/s; with `Cc1cc(-c2nnc3n2CCCCC3)c(C)n1-c1cccc2ccccc12`, more than 1000 ×10⁻⁶ cm/s. For `Cc1ccccc1C(=O)N1CCc2cc(-c3nc(NC(=O)Cc4ccccc4)sc3C)ccc21`, the Papp was more than 1000 ×10⁻⁶ cm/s. In the case of `Cc1ccc(-c2ccc(CNc3nc(-c4ccccc4C(C)C)ncc3C)cc2)cn1`, the Papp was found to be 824 ×10⁻⁶ cm/s.

Molecule `O=C(Nc1ccc(C(=O)N2CCCC2)cc1)c1ccccc1F` came in with a Papp of 139 ×10⁻⁶ cm/s. `CC(=O)OCCN1C(=O)c2c(C)nc3ccc(S(=O)(=O)N4CCOCC4)cc3c2C1=O` came in with a Papp of 665 ×10⁻⁶ cm/s. On to `CC[C@H](NC(=O)[C@H](C)NC)C(=O)N1C[C@@H](O)C[C@H]1Cc1c(-c2[nH]c3cc(F)ccc3c2C[C@H]2C[C@H](O)CN2C(=O)[C@H](CC)NC(=O)[C@H](C)NC)[nH]c2cc(F)ccc12`, for which the Papp is less than 1 ×10⁻⁶ cm/s. `O=[S+]([O-])(Nc1nccs1)c1ccc(NCc2cccc3c2NCC3)cc1` came in with a Papp of 18.9 ×10⁻⁶ cm/s. `O=C(C1CC(=O)N(c2n[nH]c3ccccc23)C1)N1CCC(c2noc3cc(F)ccc23)CC1` (centres undefined) came in with a Papp of 726 ×10⁻⁶ cm/s.

Molecule `O=[S+]([O-])(Nc1ccc(N2CCNCC2)cc1)c1ccc(NCc2cccc(Cl)c2O)cc1` gave a Papp of 7.65 ×10⁻⁶ cm/s. This Papp is about 95-fold lower than that of the molecule before. As to `NS(=O)(=O)c1ccc(NC(=O)c2cc3ncccn3n2)cc1`, the Papp stood at 82.5 ×10⁻⁶ cm/s.

In turn, `COc1ncc(-c2n[nH]c3c2CC(=O)N(c2ccccc2)C3)cn1` showed a Papp of 33.5 ×10⁻⁶ cm/s. For the molecule `O=C1CCCC2=C1C(c1[nH]ncc1Cl)N=C(Nc1nc3cccc(Cl)c3o1)N2` (centres undefined), the apparent permeability (Papp) is more than 1000 ×10⁻⁶ cm/s. With `CNC(=O)C1CCN(c2nc(-c3ccc(Br)cc3)cs2)CC1`, the Papp was 736 ×10⁻⁶ cm/s. For the molecule `CCOC(=O)c1csc(NC(=O)c2ccncc2NS(=O)(=O)c2ccc(C)cc2)n1`, the apparent permeability coefficient (Papp) worked out at 114 ×10⁻⁶ cm/s. Regarding `Cc1ccccc1S(=O)(=O)Nc1cnccc1C(=O)Nc1nc(-c2ccccc2)cs1`, the apparent permeability (Papp) is more than 1000 ×10⁻⁶ cm/s. Regarding `Cc1cc(-c2nnc3n2CCCCC3)c(C)n1-c1ccc(F)cc1`, the Papp was found to be 314 ×10⁻⁶ cm/s. The same measure for `CCCOC(=O)c1ccc(Oc2c(-c3ccc(O)cc3O)n[nH]c2C)cc1`: more than 1000 ×10⁻⁶ cm/s.
